The results in this text go back to US20230210999A1, “TARGETED PROTEASE DEGRADATION (TED) PLATFORM” (EUBULUS BIOTHERAPEUTICS INC., priority 2020, published 2023).

One assay deals with MV4;11 cells. Briefly: Cell proliferation experiment (Alamar blue, 72 h), MV4;11. In kind it is cell-based, human. The note with it: Homo sapiens, MV4-11, MV4;11 cells; read-out: Inhibitory activity IC50 on MV4;11. The gist of the method: (§1)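 Single-cell suspensions from log-phase cultures, passaged at least 2 generations, are seeded into 96-well plates and given compound in complete medium. Following 72 h, fluorescence with Alamar blue is recorded and fitted for IC50.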
`CNC(=O)c1ccccc1Nc1nc(Nc2ccc(N3CCN(C(=O)NCCOCCNCC(=O)Nc4ccc5c(c4)CN(C4CCC(=O)NC4=O)C5=O)CC3)cc2)ncc1Cl` (stereo not shown) [UB-181069]: the IC50 fell in the range of 10 to 100 nM.

As for `CNC(=O)c1ccccc1Nc1nc(Nc2ccc(N3CCN(C(=O)NCCCOCCCNCCC#Cc4cccc5c4CN(C4CCC(=O)NC4=O)C5=O)CC3)cc2)ncc1Cl` (stereo not shown) [UB-181070], the IC50 lay within 10 to 100 nM.

Take `O=C1CCC(N2Cc3cc(NC(=O)COCCOCCOCC(O)Cn4cc(-c5ccc(Nc6ncc7c(n6)-c6ccc(Cl)cc6C(c6c(F)cccc6F)=NC7)cc5)nn4)ccc3C2=O)C(=O)N1` (stereo not shown) [UB-181071]: the IC50 is 100 to 1000 nM.

Turning to `O=C1CCC(N2Cc3c(NC(=O)COCCOCCOCC(O)Cn4cc(-c5ccc(Nc6ncc7c(n6)-c6ccc(Cl)cc6C(c6c(F)cccc6F)=NC7)cc5)nn4)cccc3C2=O)C(=O)N1` (stereo not shown) [UB-181072], the IC50 lay within 100 to 1000 nM.

As to `CNC(=O)c1ccccc1Nc1nc(Nc2ccc(N3CCN(C(=O)NCCOCCOCC(N)COCCC(=O)Nc4cccc5c4CN(C4CCC(=O)NC4=O)C5=O)CC3)cc2)ncc1Cl` (stereo not shown) [UB-181073], the IC50 was below 10 nM.

For `CNC(=O)c1ccccc1Nc1nc(Nc2ccc(N3CCN(C(=O)NCCOCC(O)COCCOCCC(=O)Nc4ccc5c(c4)CN(C4CCC(=O)NC4=O)C5=O)CC3)cc2)ncc1Cl` (stereo not shown) [UB-181074], the IC50 was in the range of 10 to 100 nM.

Staying with this assay, now noted: MV4;11 cells; read-out: Inhibitory activity IC50 on MV4;11.
As to `CNC(=O)c1ccccc1Nc1nc(Nc2ccc(N3CCN(C(=O)NCCCCOCCCNCCC(=O)Nc4ccc5c(c4)CN(C4CCC(=O)NC4=O)C5=O)CC3)cc2)ncc1Cl` (stereo not shown) [UB-181046], the 50% inhibitory concentration (IC50) is below 10 nM.

For the next assay, the system named is PC-3. Briefly: Cell proliferation experiment, PC-3. The assay is classed as cell-based, human. Conditions: Homo sapiens, PC-3, PC-3 cells; read-out: Inhibitory activity IC50 on PC-3. The protocol:
(§2) Reagents: RPMI-1640 medium, McCoy's 5A medium, IMDM medium, MEM medium, L-15 medium, fetal bovine serum. Penicillin-Streptomycin double antibody, trypsin, etc., 2-mercaptoethanol, NEAA, pyruvate, etc.
(§3) The cells were cultured in conventional ways, and the cells should be passed at least 2 generations before plating. Cells at the logarithmic growth phase were collected, prepared into single cell suspensions and counted. The concentration of cells was adjusted to the desired concentration, and cells were inoculated into a 96-well cell culture plate at 100 μl per well. 100 μL of complete medium of the test compound were added to each well, set up 2 duplicate wells for each concentration, and diluted with a 5-fold gradient, and continued to culture for 72 h. All cells were subjected to IC50 test for corresponding samples. The experimental results are shown in Test Example 4.
(§4) The fluorescence intensity of each well was detected using the Alarm blue method, and IC50 was calculated.
(§5) IC50 was calculated according to the following formula:
(§6) Y=Max+(Min−Max)/[1+(X/IC50)×Slope]
(§7) wherein Min, Max and Slope represent the minimum, maximum and slope respectively.
Take `CNC(=O)c1ccccc1Nc1nc(Nc2ccc(N3CCN(C(=O)NCCOCCNCC(=O)Nc4ccc5c(c4)CN(C4CCC(=O)NC4=O)C5=O)CC3)cc2)ncc1Cl` (stereo not shown) [UB-181069]: the half-maximal inhibitory concentration (IC50) is above 1000 nM.

As to `CNC(=O)c1ccccc1Nc1nc(Nc2ccc(N3CCN(C(=O)NCCCOCCCNCCC#Cc4cccc5c4CN(C4CCC(=O)NC4=O)C5=O)CC3)cc2)ncc1Cl` (stereo not shown) [UB-181070], the IC50 is above 1000 nM.

Regarding `O=C1CCC(N2Cc3cc(NC(=O)COCCOCCOCC(O)Cn4cc(-c5ccc(Nc6ncc7c(n6)-c6ccc(Cl)cc6C(c6c(F)cccc6F)=NC7)cc5)nn4)ccc3C2=O)C(=O)N1` (stereo not shown) [UB-181071], the IC50 was above 1000 nM.

With `O=C1CCC(N2Cc3c(NC(=O)COCCOCCOCC(O)Cn4cc(-c5ccc(Nc6ncc7c(n6)-c6ccc(Cl)cc6C(c6c(F)cccc6F)=NC7)cc5)nn4)cccc3C2=O)C(=O)N1` (stereo not shown) [UB-181072], the IC50 was above 1000 nM.

Turning to `CNC(=O)c1ccccc1Nc1nc(Nc2ccc(N3CCN(C(=O)NCCOCCOCC(N)COCCC(=O)Nc4cccc5c4CN(C4CCC(=O)NC4=O)C5=O)CC3)cc2)ncc1Cl` (stereo not shown) [UB-181073], the 50% inhibitory concentration (IC50) is above 1000 nM.

As to `CNC(=O)c1ccccc1Nc1nc(Nc2ccc(N3CCN(C(=O)NCCOCC(O)COCCOCCC(=O)Nc4ccc5c(c4)CN(C4CCC(=O)NC4=O)C5=O)CC3)cc2)ncc1Cl` (stereo not shown) [UB-181074], the IC50 is above 1000 nM.

Still in this assay, the particulars now being: PC-3 cells; read-out: Inhibitory activity IC50 on PC-3.
Turning to `CNC(=O)c1ccccc1Nc1nc(Nc2ccc(N3CCN(C(=O)NCCCCOCCCNCCC(=O)Nc4ccc5c(c4)CN(C4CCC(=O)NC4=O)C5=O)CC3)cc2)ncc1Cl` (stereo not shown) [UB-181046], the half-maximal inhibitory concentration (IC50) is above 1000 nM.

In the next assay the test system is NCIH82 cells. Briefly: Cell proliferation experiment, NCI-H82. In kind it is cell-based, human. The note with it: Homo sapiens, NCI-H82, NCI-H82 cells; read-out: Inhibitory activity IC50 on NCI-H82. The gist of the method:
as §1
Turning to `CNC(=O)c1ccccc1Nc1nc(Nc2ccc(N3CCN(C(=O)NCCOCCNCC(=O)Nc4ccc5c(c4)CN(C4CCC(=O)NC4=O)C5=O)CC3)cc2)ncc1Cl` (stereo not shown) [UB-181069], the IC50 was above 1000 nM.

With `CNC(=O)c1ccccc1Nc1nc(Nc2ccc(N3CCN(C(=O)NCCCOCCCNCCC#Cc4cccc5c4CN(C4CCC(=O)NC4=O)C5=O)CC3)cc2)ncc1Cl` (stereo not shown) [UB-181070], the concentration for half-maximal inhibition (IC50) fell in the range of 100 to 1000 nM.

Turning to `O=C1CCC(N2Cc3cc(NC(=O)COCCOCCOCC(O)Cn4cc(-c5ccc(Nc6ncc7c(n6)-c6ccc(Cl)cc6C(c6c(F)cccc6F)=NC7)cc5)nn4)ccc3C2=O)C(=O)N1` (stereo not shown) [UB-181071], the 50% inhibitory concentration (IC50) is above 1000 nM.

Turning to `O=C1CCC(N2Cc3c(NC(=O)COCCOCCOCC(O)Cn4cc(-c5ccc(Nc6ncc7c(n6)-c6ccc(Cl)cc6C(c6c(F)cccc6F)=NC7)cc5)nn4)cccc3C2=O)C(=O)N1` (stereo not shown) [UB-181072], the IC50 was above 1000 nM.

For the compound `CNC(=O)c1ccccc1Nc1nc(Nc2ccc(N3CCN(C(=O)NCCOCCOCC(N)COCCC(=O)Nc4cccc5c4CN(C4CCC(=O)NC4=O)C5=O)CC3)cc2)ncc1Cl` (stereo not shown) [UB-181073], the 50% inhibitory concentration (IC50) was above 1000 nM.

As for `CNC(=O)c1ccccc1Nc1nc(Nc2ccc(N3CCN(C(=O)NCCOCC(O)COCCOCCC(=O)Nc4ccc5c(c4)CN(C4CCC(=O)NC4=O)C5=O)CC3)cc2)ncc1Cl` (stereo not shown) [UB-181074], the IC50 was above 1000 nM.

The same assay, now with this note: NCI-H82 cells; read-out: Inhibitory activity IC50 on NCI-H82.
Consider `CNC(=O)c1ccccc1Nc1nc(Nc2ccc(N3CCN(C(=O)NCCCCOCCCNCCC(=O)Nc4ccc5c(c4)CN(C4CCC(=O)NC4=O)C5=O)CC3)cc2)ncc1Cl` (stereo not shown) [UB-181046], for which the 50% inhibitory concentration (IC50) was 100 to 1000 nM.

For the next assay, the system named is MDA-MB-231 cells. Put plainly: Cell proliferation experiment, MDA-MB-231. The assay is classed as cell-based, human. Conditions: Homo sapiens, MDA-MB-231, MDA-MB-231 cells; read-out: Inhibitory activity IC50 on MDA-MB-231. The protocol:
as §2, §3, §4, §5, §6, §7
`CNC(=O)c1ccccc1Nc1nc(Nc2ccc(N3CCN(C(=O)NCCOCCNCC(=O)Nc4ccc5c(c4)CN(C4CCC(=O)NC4=O)C5=O)CC3)cc2)ncc1Cl` (stereo not shown) [UB-181069]: the IC50 is above 1000 nM.

As to `CNC(=O)c1ccccc1Nc1nc(Nc2ccc(N3CCN(C(=O)NCCCOCCCNCCC#Cc4cccc5c4CN(C4CCC(=O)NC4=O)C5=O)CC3)cc2)ncc1Cl` (stereo not shown) [UB-181070], the IC50 lay in the range of 100 to 1000 nM.

As to `O=C1CCC(N2Cc3cc(NC(=O)COCCOCCOCC(O)Cn4cc(-c5ccc(Nc6ncc7c(n6)-c6ccc(Cl)cc6C(c6c(F)cccc6F)=NC7)cc5)nn4)ccc3C2=O)C(=O)N1` (stereo not shown) [UB-181071], the concentration for half-maximal inhibition (IC50) was above 1000 nM.

Consider `O=C1CCC(N2Cc3c(NC(=O)COCCOCCOCC(O)Cn4cc(-c5ccc(Nc6ncc7c(n6)-c6ccc(Cl)cc6C(c6c(F)cccc6F)=NC7)cc5)nn4)cccc3C2=O)C(=O)N1` (stereo not shown) [UB-181072], for which the IC50 was above 1000 nM.

For the compound `CNC(=O)c1ccccc1Nc1nc(Nc2ccc(N3CCN(C(=O)NCCOCCOCC(N)COCCC(=O)Nc4cccc5c4CN(C4CCC(=O)NC4=O)C5=O)CC3)cc2)ncc1Cl` (stereo not shown) [UB-181073], the half-maximal inhibitory concentration (IC50) was above 1000 nM.

As for `CNC(=O)c1ccccc1Nc1nc(Nc2ccc(N3CCN(C(=O)NCCOCC(O)COCCOCCC(=O)Nc4ccc5c(c4)CN(C4CCC(=O)NC4=O)C5=O)CC3)cc2)ncc1Cl` (stereo not shown) [UB-181074], the IC50 is above 1000 nM.

Still in this assay, the particulars now being: MDA-MB-231 cells; read-out: Inhibitory activity IC50 on MDA-MB-231.
Turning to `CNC(=O)c1ccccc1Nc1nc(Nc2ccc(N3CCN(C(=O)NCCCCOCCCNCCC(=O)Nc4ccc5c(c4)CN(C4CCC(=O)NC4=O)C5=O)CC3)cc2)ncc1Cl` (stereo not shown) [UB-181046], the IC50 is above 1000 nM.

In general, IC50 refers to the concentration needed to halve the response being measured.
